This passage reports mortality results from patent US20220274947A1, “NOVEL HETEROARYL-TRIAZOLE COMPOUNDS AS PESTICIDES” (Bayer Aktiengesellschaft, priority 2019, published 2022).

Holding throughout (assay type): in vivo
The test system of one assay is Ctenocephalides felis. As to the kind of experiment: Ctenocephalides felis oral test (CTECFE Oral). As to conditions: 48 h, read-out: activity (mortality). Summed up:
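Percent mortality was recorded 2 days after roughly 20 adult Ctenocephalides felis fed on treated cattle blood. The blood was warmed to 37 °C beneath a parafilm membrane, with the fleas kept at room temperature. Compound was dissolved in DMSO and diluted into the blood to test concentration.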

Assay [1] relates to Myzus persicae. As to the kind of experiment: Myzus persicae oral test. As to conditions: 120 h, read-out: activity (mortality). An outline of the steps: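 Percent mortality was recorded at day 5, where 0% means no aphids killed. Compound prepared from an acetone concentrate diluted in water and combined with IPL41 medium containing sugar was offered to mixed-stage green peach aphids, which sucked it through a parafilm seal.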

Assay [2] has as its system Myzus persicae. The assay is described as follows: Myzus persicae spray test. As to conditions: in Brassica rapa, foliar, 120 h; for mortality at 500 g/ha: read-out: activity (mortality), application rate 500 g/ha, spray, Chinese cabbage leaf disks, after 5 days; for mortality at 100 g/ha: read-out: activity (mortality), application rate 100 g/ha, spray, Chinese cabbage leaf disks, after 5 days. An outline of the steps: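 Aphid mortality in % was assessed 5 days after spraying; leaf disks of Brassica pekinensis carrying mixed-instar green peach aphids were treated. Spray preparation: active compound in acetone plus dimethylformamide, diluted with emulsifier-containing water (1000 ppm).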

Assay [3] has as its system Aedes aegypti strain MONHEIM. As to the kind of experiment: Aedes aegypti test (AEDSAE surface treatment & contact assay). As to conditions: exposure 30 minutes, 24 hours after contact, read-out: efficacy (mortality); for mortality at 20 mg/m2: surface concentration 20 mg/m^2, glazed tile; for mortality at 4 mg/m2: surface concentration 4 mg/m^2, glazed tile. Summed up: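 Compound dissolved in acetone (2 mg/ml) with 2000 ppm rapeseed oil methyl ester, pipetted onto glazed tile and dried. Adult mosquitoes exposed on the surface for 30 min; percent mortality scored 24 h after contact.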

Assay [4] has as its system Culex quinquefasciatus strain P00. The assay is described as follows: Culex quinquefasciatus test (CULXFA surface treatment & contact assay). Conditions: exposure 30 minutes, 24 hours after contact, read-out: efficacy (mortality); for mortality at 20 mg/m2: surface concentration 20 mg/m^2, glazed tile; for mortality at 4 mg/m2: surface concentration 4 mg/m^2, glazed tile. The procedure: Culex quinquefasciatus Test (CULXFA Surface Treatment & Contact Assay) Solvent: Aceton+2000 ppm rapeseed oil methyl ester (RME)
In order to produce a sufficient, active ingredient containing solution it is necessary to solve the test compound in the solvent-mix (acetone at 2 mg/ml/RME 2 000 ppm). This solution is pipetted onto a glazed tile and after evaporation of the acetone, adult mosquitoes of the species Culex quinquefasciatus strain P00 are placed onto the dried surface. The exposure time is 30 minutes. Mortality in percent (%) is determined 24 hours after contact of the insects to the treated surface. 100% mortality means that all tested insects are dead, whereas 0% means that no insect died.

Assay [5] relates to Musca domestica strain WHO—N. The assay is described as follows: Musca domestica test (MUSCDO surface treatment & contact assay). As to conditions: exposure 30 minutes, 24 hours after contact, read-out: efficacy (mortality); for mortality at 20 mg/m2: surface concentration 20 mg/m^2, glazed tile; for mortality at 4 mg/m2: surface concentration 4 mg/m^2, glazed tile. Summed up: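 Compound dissolved in acetone (2 mg/ml) with 2000 ppm rapeseed oil methyl ester and pipetted onto glazed tile; after acetone evaporation, adult flies exposed to dried surface for 30 minutes. Mortality (%) scored 24 hours after contact.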

Assay [6] relates to Anopheles funestus strain FUMOZ-R. As to the kind of experiment: Anopheles funestus test (ANPHFU surface treatment & contact assay). As to conditions: exposure 30 minutes, 24 hours after contact, read-out: efficacy (mortality); for mortality at 4 mg/m2: surface concentration 4 mg/m^2, glazed tile; for mortality at 20 mg/m2: surface concentration 20 mg/m^2, glazed tile. Summed up:
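Adult FUMOZ-R mosquitoes were exposed 30 min to glazed tiles treated with compound in acetone plus 2000 ppm rapeseed oil methyl ester, after solvent evaporation. Percent mortality was scored 24 h after contact.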

For the compound `C[C@H](NC(=O)c1cc(Cl)cc(OC(F)(F)F)c1)c1ncnn1-c1cc(N)ccn1` [II-7], the mortality at 100 ppm in the assay with Ctenocephalides felis stood at 100%. Besides, the mortality at 4 ppm in the assay with Myzus persicae [1] was 100%. Also, the mortality at 500 g/ha with Myzus persicae [2] was 100%. Further, the mortality at 20 mg/m2 in assay [3], in assay [4] and in assay [5] was 80 to 100% each time.

Regarding `C[C@H](NC(=O)c1ccnc(C(F)(F)F)n1)c1ncnn1-c1ccc(C#N)cn1` [II-8], in the assay on Ctenocephalides felis, the mortality at 100 ppm is 100%. The mortality at 500 g/ha in the assay on Myzus persicae [2] stood at 90%. In addition, the mortality at 4 mg/m2 in assay [3], in assay [4], in assay [6] and in assay [5] was 80 to 100% each time. The mortality at 20 mg/m2 in assay [3], in assay [4], in assay [6] and in assay [5] was 80 to 100% each time.

With `C[C@H](NC(=O)c1cccc(Cl)n1)c1ncnn1-c1ccc(C#N)cn1` [II-9], the mortality at 100 ppm with Ctenocephalides felis worked out at 90%. The mortality at 20 mg/m2 in assay [4], in assay [6] and in assay [5] was 80 to 100% in each case. The mortality at 4 mg/m2 in assay [6] was in the range of 80 to 100%.

On to `C[C@H](NC(=O)c1cc(Cl)cc(C(F)F)c1)c1ncnn1-c1ccc(C#N)cn1` [II-12], for which the mortality at 100 ppm in the assay with Ctenocephalides felis turned out to be 100%. Moreover, the mortality at 4 ppm in the assay with Myzus persicae [1] was 100%. Besides, in the assay on Myzus persicae [2], the mortality at 100 g/ha is 90%. The mortality at 500 g/ha in the assay on Myzus persicae [2] stood at 90%. Moreover, the mortality at 4 mg/m2 in assay [3], in assay [4], in assay [6] and in assay [5] was 80 to 100% throughout. For the same compound, the mortality at 20 mg/m2 in assay [4], in assay [6] and in assay [5] was 80 to 100% each time.

`C[C@H](NC(=O)c1cc(Cl)cc(OC(F)(F)F)c1)c1ncnn1-c1ncc(Cl)s1` [II-16]: in the assay on Ctenocephalides felis, the mortality at 100 ppm is 100%. Also, in the assay on Myzus persicae [2], the mortality at 100 g/ha is 90%. The mortality at 20 mg/m2 in assay [3], in assay [4], in assay [6] and in assay [5] was 80 to 100% each time.

Turning to `Cc1nc([C@H](C)NC(=O)c2cc(Cl)cc(Cl)c2)n(-c2cc(C#N)ccn2)n1` [II-17], the mortality at 100 ppm with Ctenocephalides felis was found to be 100%. In addition, the mortality at 4 mg/m2 in assay [3], in assay [6] and in assay [5] was 80 to 100% throughout. Further, the mortality at 20 mg/m2 in assay [3], in assay [4], in assay [6] and in assay [5] was 80 to 100% each time.

As to `CC(=O)Nc1ccnc(-n2ncnc2[C@H](C)NC(=O)c2cc(Cl)cc(OC(F)(F)F)c2)c1` [II-22], in the assay with Ctenocephalides felis, the mortality at 100 ppm turned out to be 100%. The mortality at 4 mg/m2 in assay [3], in assay [4], in assay [6] and in assay [5] was 80 to 100% in each case. For the same compound, the mortality at 20 mg/m2 in assay [3], in assay [4], in assay [6] and in assay [5] was 80 to 100% each time.

Take `CCN(C)C(=O)c1ccc(-n2ncnc2[C@H](C)NC(=O)c2cc(Cl)cc(C(F)(F)F)c2)nc1` [II-27]: the mortality at 4 ppm in the assay on Myzus persicae [1] was found to be 100%. Also, the mortality at 500 g/ha in the assay with Myzus persicae [2] was found to be 90%. Moreover, the mortality at 4 mg/m2 in assay [3] lay within 80 to 100%. Also, the mortality at 20 mg/m2 in assay [3], in assay [4] and in assay [6] was 80 to 100% in each case.

Turning to `C[C@H](NC(=O)c1cc(Cl)cc(C(F)(F)F)c1)c1ncnn1-c1cc(N)ccn1` [II-28], the mortality at 100 ppm with Ctenocephalides felis worked out at 100%. Also, in the assay with Myzus persicae [1], the mortality at 4 ppm worked out at 90%. In addition, the mortality at 20 mg/m2 in assay [3], in assay [4] and in assay [5] was 80 to 100% in each case. For the same compound, the mortality at 4 mg/m2 in assay [4] fell in the range of 80 to 100%.

For `C[C@H](NC(=O)c1cc(Cl)cc(OC(F)(F)F)c1)c1ncnn1-c1ncc(OC(F)F)cn1` [II-30], the mortality at 100 ppm in the assay on Ctenocephalides felis turned out to be 100%. Also, in the assay with Myzus persicae [1], the mortality at 4 ppm amounted to 100%. Besides, the mortality at 4 mg/m2 in assay [3], in assay [4] and in assay [5] was 80 to 100% each time. Also, the mortality at 20 mg/m2 in assay [3] and in assay [5] was 80 to 100% in each case.

In the case of `CCN(C(=O)c1ccc(-n2ncnc2[C@H](C)NC(=O)c2cc(Cl)cc(C(F)(F)F)c2)nc1)C1CC1` [II-31], the mortality at 4 ppm with Myzus persicae [1] came out at 100%. In the assay on Myzus persicae [2], the mortality at 100 g/ha turned out to be 100%. Moreover, the mortality at 500 g/ha in the assay on Myzus persicae [2] was determined as 100%. The mortality at 20 mg/m2 in assay [3], in assay [4], in assay [6] and in assay [5] was 80 to 100% each time. Also, the mortality at 4 mg/m2 in assay [6] was in the range of 80 to 100%.

Consider `CC(=O)Nc1ccnc(-n2ncnc2[C@H](C)NC(=O)c2cc(Cl)cc(C(F)(F)F)c2)c1` [II-36], for which, in the assay with Myzus persicae [2], the mortality at 500 g/ha worked out at 90%. Further, the mortality at 4 mg/m2 in assay [3], in assay [4] and in assay [6] was 80 to 100% throughout. In addition, the mortality at 20 mg/m2 in assay [3], in assay [4], in assay [6] and in assay [5] was 80 to 100% throughout.

`C[C@H](NC(=O)c1cc(C(F)(F)F)cc(C(F)(F)F)c1)c1ncnn1-c1ccc(C(=O)NC2CC2)cn1` [II-37]: in the assay with Myzus persicae [1], the mortality at 0.8 ppm stood at 100% and the mortality at 4 ppm was 100%. Besides, the mortality at 500 g/ha in the assay on Myzus persicae [2] was 100%. Further, in assay [3], the mortality at 4 mg/m2 fell in the range of 80 to 100% and the mortality at 20 mg/m2 fell in the range of 80 to 100%. Moreover, the mortality at 20 mg/m2 in assay [4] was in the range of 80 to 100%.

On to `C[C@H](NC(=O)c1cc(C(F)(F)F)cc(C(F)(F)F)c1)c1ncnn1-c1ncc(Cl)s1` [II-40], for which the mortality at 500 g/ha in the assay on Myzus persicae [2] came out at 100%. For the same compound, the mortality at 4 mg/m2 in assay [3] and in assay [4] was 80 to 100% in each case. The mortality at 20 mg/m2 in assay [3], in assay [4], in assay [6] and in assay [5] was 80 to 100% each time.

For `Cc1nc([C@H](C)NC(=O)c2cc(Br)cc(Br)c2)n(-c2ccc(C#N)cn2)n1` [II-52], the mortality at 100 ppm in the assay with Ctenocephalides felis was determined as 100%. Also, the mortality at 0.8 ppm in the assay with Myzus persicae [1] turned out to be 100%. In addition, the mortality at 4 ppm in the assay on Myzus persicae [1] worked out at 100%. Also, the mortality at 100 g/ha with Myzus persicae [2] worked out at 90%. Besides, the mortality at 4 mg/m2 in assay [3], in assay [4], in assay [6] and in assay [5] was 80 to 100% throughout. The mortality at 20 mg/m2 in assay [3], in assay [6] and in assay [5] was 80 to 100% throughout.

On to `C[C@H](NC(=O)c1cc(Cl)cc(C#N)c1)c1ncnn1-c1ccc(C#N)cn1` [II-57], for which the mortality at 100 ppm with Ctenocephalides felis was determined as 100%. Besides, the mortality at 100 g/ha in the assay on Myzus persicae [2] stood at 90%. In addition, the mortality at 4 mg/m2 in assay [3], in assay [4] and in assay [5] was 80 to 100% throughout. In addition, the mortality at 20 mg/m2 in assay [3], in assay [4] and in assay [5] was 80 to 100% each time.

With `Cc1nc([C@H](C)NC(=O)c2cc(Cl)nc(C(F)(F)F)c2)n(-c2ccc(C#N)cn2)n1` [II-62], the mortality at 100 ppm in the assay on Ctenocephalides felis was 100%. For the same compound, the mortality at 4 ppm with Myzus persicae [1] was determined as 100%. In addition, in the assay with Myzus persicae [2], the mortality at 100 g/ha amounted to 100%. The mortality at 4 mg/m2 in assay [3] and in assay [5] was 80 to 100% in each case. Also, the mortality at 20 mg/m2 in assay [3], in assay [4] and in assay [5] was 80 to 100% each time.
